Results: patent US7927794B2, “Methods for identifying a biosynthetic pathway gene product” (priority 2003, dated 2011)

Legend:
engineered E. coli = experiment: Growth and metabolite analysis of E. coli expressing S. cerevisiae HMG-CoA synthase (pHMGS); assay type: cell-based, Escherichia coli; details: accumulation on expression of HMG-CoA synthase from pHMGS
Source text: As a specific example, the accumulation of hydroxymethylglutaryl-CoA (HMG-CoA) is toxic to engineered E. coli.
(§1) FIG. 10. Cultures of E. coli expressing either no heterologous genes (Control), the S. cerevisiae HMG-CoA synthase alone (pHMGS & Empty Vector), or both the S. cerevisiae HMG-CoA synthase and HMG-CoA reductase (pHMGS & pHMGR) on separate expression vectors.
as §1, with “11. Metabolite analysis of cultures” for “10. Cultures”, “and” for “&”, “vectors. E. coli expressing HMG-CoA synthase alone accumulated HMG-CoA.” for “vectors.”

E. coli DH10B = experiment: Growth (optical density) of E. coli harboring mevalonate pathway operon plasmids in media supplemented with exogenous mevalonate; design: growth of strains lacking the ADS gene: dose or concentration left out as unconfirmed
Protocol: For the growth studies, the optical density (OD) of cultures expressing the various recombinant pathways was measured with a microtiter plate reader (SpectraMax, Molecular Devices) from 200 μl cultures of LB broth in 96-well plates incubated at 37° C. with continuous shaking. […] The DYM1 strain was propagated on LB medium containing 0.5 mM methylerithrytol (ME) and transformed DYM1 cells were first allowed to recover on plates supplemented with ME before streaking them on test media.
To investigate the cause of this inhibition, measured the growth of E. coli DH10B from strains harboring either the pMKPMK, pMevB, pMBI or pMBIS plasmid in media supplemented with increasing concentrations of exogenous mevalonate was measured. […] To compare the intracellular prenyl pyrophosphate pools in the same strains, resting cells harboring the different mevalonate operon constructs were fed radiolabeled mevalonate and the labeled metabolites were tracked. […] Simultaneous expression of the amorphadiene synthase consumed the excess FPP pool accumulated in the MBIS host, as shown by a decrease in intracellular FPP.
However, in the absence of the IPP isomerase, FPP synthase and terpene synthase to channel the pathway intermediates to the terpene olefin, toxic levels of intracellular pyrophosphates, especially IPP, may accumulate.

E. coli strain DYM1 = experiment: Complementation of isoprenoid-deficient ispC mutant E. coli strain DYM1 on supplemented plates; assay type: cell-based, Escherichia coli
Source text: (§2) Campos (2001) Biochem. J. 353:59-67.
To increase the intracellular concentration of FPP substrate supplied to the amorphadiene synthase, the genes encoding the mevalonate-dependent isoprenoid pathway from S. cerevisiae were assembled into operons and expressed in E. coli. To simplify the task of engineering an eight-gene biosynthetic pathway, we divided the genes into two operons, referred to as the “top” and “bottom”. The top operon, MevT, transforms the ubiquitous precursor acetyl-CoA to (R)-mevalonate in three enzymatic steps (FIG. 13). The bottom operon converts the (R)-mevalonate to IPP, DMAPP and/or FPP depending on the construct (FIG. 13). To test the functionality of the heterologous pathway, an E. coli strain deficient in isoprenoid synthesis (strain DYM1) was transformed with plasmids expressing the three different bottom operon constructs pMevB, pMBI and pMBIS (FIG. 13). Strain DYM1 has a deletion in the ispC gene, which encodes 1-deoxy-D-xylulose-5-phosphate reductoisomerase (Kuzuyama et al. (1999) supra) and therefore, cannot synthesize 2-C-methyl-D-erythritol 4-phosphate, an intermediate in the endogenous isoprenoid biosynthetic pathway (FIG. 3). As expected, all strains grew in the presence of 2-C-methyl-D-erythritol (ME), but only the strains harboring pMBI or pMBIS and not pMevB grew on plates supplemented with 1 mM mevalonate in the absence of ME. […]

E. coli = experiment: Growth of E. coli overproducing IPP and DMAPP (MK, PMK, MPD, IPP isomerase from pBBR1MCS-2) with various concentrations of mevalonate; assay type: cell-based, Escherichia coli; details: all concentrations of mevalonate studied
Source text: as §2
A genomic library from the isoprene-producing bacteria Bacillus subtilis 6051 was expressed from the pTrc99A plasmid in an E. coli strain engineered (genetically modified) to produce elevated levels of IPP and DMAPP. The engineered screening strain expressed nucleic acids encoding mevalonate kinase, phosphomevalonate kinase, mevalonate diphosphate decarboxylase, and IPP/DMAPP isomerase from the pBBR1MCS plasmid, as described in Example 1. Mevalonate was present in the growth medium at a concentration of 10 mM. After several rounds of growth, only plasmids containing genomic fragments with either yhfR or nudF were found in the genomic library.
FIG. 7. […] Triplicate cultures of E. coli expressing the genes encoding for mevalonate kinase, phosphomevalonate kinase, mevalonate diphosphate decarboxylase, and IPP isomerase from the pBBR1MCS-2 plasmid were grown in the presence of various concentrations of mevalonate present in the culture medium. The cells also harbor the pTRC99A expression vector.
FIG. 8. […] Triplicate cultures were set up, which were identical to those depicted in FIG. 7, except that pTRC99A was replaced by pYhfR. The pYhfR plasmid is a pTrc99A backbone that contains the gene yhfR. The yhfR gene was isolated from a plasmid library containing genomic DNA from Bacillus subtilis 6051.
FIG. 9. […]

## CC(C)(COP(=O)(O)OP(=O)(O)OC[C@H]1O[C@@H](n2cnc3c(N)ncnc32)[C@H](O)[C@@H]1OP(=O)(O)O)[C@@H](O)C(=O)NCCC(=O)NCCSC(=O)C[C@@](C)(O)CC(=O)O [HMG-CoA, hydroxymethylglutaryl-CoA]
Engineered E. coli
  effect of intracellular accumulation on engineered E. coli: toxic

## C=C(C)CCO[P@@](=O)(O)OP(=O)(O)O [IPP, isopentenyl diphosphate]
E. coli DH10B; accumulation in cells with high flux through the mevalonate pathway (pMevB)
  effect of intracellular accumulation on cell growth: toxic and inhibits normal cell growth

## C[C@](O)(CO)[C@H](O)CO [2-C-methyl-D-erythritol]
E. coli strain DYM1; in the presence of 2-C-methyl-D-erythritol (ME)
  growth of DYM1 strains harboring pMevB, pMBI or pMBIS: grew

## CC(O)(CCO)CC(=O)O (stereo not shown) [mevalonate]
E. coli; FIG. 8
  growth of cells harboring pYhfR (yhfR): No growth inhibition
E. coli; FIG. 9
  growth of cells harboring pC9b (nudF): No growth inhibition
E. coli strain DYM1; plates supplemented with 1 mM mevalonate in the absence of ME
  growth of DYM1 strains harboring pMBI or pMBIS: grew
E. coli DH10B; 5 mM mevalonate in the media
  growth of cells harboring pMKPMK, pMBI or pMBIS: did not affect the growth
  growth of cells harboring pMevB: inhibited the growth
E. coli DH10B; 10 mM mevalonate
  growth of cells expressing MBIS: growth inhibition
E. coli DH10B; all mevalonate concentrations, IPTG-inducible promoters
  growth of cells co-expressing the MBIS operon and the amorphadiene synthase gene: normal growth rates
E. coli DH10B; approximately 2 hours after addition of mevalonate and IPTG
  growth of strains lacking the ADS gene: Growth inhibition
E. coli DH10B; greater than 10 mM mevalonate, MBIS cultures where amorphadiene synthase was not expressed
  growth of control cultures: Severe growth inhibition
E. coli DH10B; media supplemented with 1 mM mevalonate
  growth on expression of the operons: only a slight decrease in growth
